This is an account of results in publication PMC8270262 (Molecules, 2021).

Entries after “also recorded” stand apart in the source; their conditions may differ.

The subject of test [1] is WNF protease. Conditions: cited from earlier work.
The test system of test [2] is DENV protease. Conditions: enzyme concentration 1 μM; cited from earlier work.
In test [3] the target is SARS-CoV-2 PL^pro (Severe acute respiratory syndrome coronavirus 2, UniProt P0DTD1). The test can be described thus: biochemical.

Broadly, the IC50 is the concentration that gives 50% inhibition.

Consider Aprotinin, for which the 50% inhibitory concentration (IC50) was 20 nM in test [1] and 65 nM in test [2].

`CCN(CC)C(=S)SSC(=S)N(CC)CC` [Antabuse]: the “Effect of reducing agent on PLpro inhibition (in words)” value in test [3] was “significantly increases the IC50 values”.

As for `Sc1ncnc2nc[nH]c12` [6-MP, 6-mercaptopurine], the 50% inhibitory concentration (IC50) in test [3] was around 66000 nM.

With `Sc1ncc2[nH]cnc2n1` [2-MP, 2-mercaptopurine], in test [3], the “Effect of reducing agent on PLpro inhibition (in words)” value is listed as “diminished; also recorded: significantly increases the IC50 values” and half-maximal inhibition (IC50) required 820 ± 600 nM.
